Assay results: ChEMBL document CHEMBL4387792, “Cytotoxic and Antibacterial Cervinomycins B1-4 from a Streptomyces Species” (J Nat Prod, 2019)
Activity calls are given as the source filed them.

Experiments:
Staphylococcus aureus [1] = assay: Antibacterial activity against methicillin-sensitive Staphylococcus aureus 15 assessed as prevention of visible bacterial growth incubated for 18 hrs by broth dilution method; type: functional, organism-based
Enterococcus faecium [2] = assay: Antibacterial activity against vancomycin-resistant Enterococcus faecium 12-1 assessed as prevention of visible bacterial growth incubated for 18 hrs by broth dilution method; type: functional; conditions: 12-1, 18 h
SW1990 = assay: Cytotoxicity against human SW1990 cells incubated for 72 hrs by MTT assay; type: functional, cell-based; conditions: SW1990, 72 h
Pseudomonas aeruginosa = assay: Antibacterial activity against Pseudomonas aeruginosa ATCC 27853 assessed as prevention of visible bacterial growth incubated for 18 hrs by broth dilution method; type: functional, organism-based
Staphylococcus aureus [3] = assay: Antibacterial activity against methicillin-resistant Staphylococcus aureus ATCC 33591 assessed as prevention of visible bacterial growth incubated for 18 hrs by broth dilution method; type: functional; conditions: ATCC 33591, 18 h
NCI-H1299 = assay: Cytotoxicity against human NCI-H1299 cells incubated for 72 hrs by MTT assay; type: functional, cell-based; conditions: NCI-H1299, 72 h
[4] = test system: Staphylococcus epidermidis; assay: Antibacterial activity against methicillin-sensitive Staphylococcus epidermidis ATCC 12228 assessed as prevention of visible bacterial growth incubated for 18 hrs by broth dilution method; type: functional, organism-based
Enterococcus faecalis [5] = assay: Antibacterial activity against vancomycin-resistant Enterococcus faecalis ATCC 51575 assessed as prevention of visible bacterial growth incubated for 18 hrs by broth dilution method; type: functional; conditions: ATCC 51575, 18 h
Enterococcus faecium [6] = assay: Antibacterial activity against vancomycin-sensitive Enterococcus faecium 16-5 assessed as prevention of visible bacterial growth incubated for 18 hrs by broth dilution method; type: functional, organism-based
[7] = test system: Acinetobacter calcoaceticus; assay: Antibacterial activity against Acinetobacter calcoaceticus ATCC 19606 assessed as prevention of visible bacterial growth incubated for 18 hrs by broth dilution method; type: functional, organism-based
Enterococcus faecalis [8] = assay: Antibacterial activity against vancomycin-resistant Enterococcus faecalis ATCC 51299 assessed as prevention of visible bacterial growth incubated for 18 hrs by broth dilution method; type: functional; conditions: ATCC 51299, 18 h
Staphylococcus aureus [9] = assay: Antibacterial activity against methicillin-resistant Staphylococcus aureus 16-30 assessed as prevention of visible bacterial growth incubated for 18 hrs by broth dilution method; type: functional; conditions: 16-30, 18 h
Enterococcus faecalis [10] = assay: Antibacterial activity against vancomycin-sensitive Enterococcus faecalis ATCC 29212 assessed as prevention of visible bacterial growth incubated for 18 hrs by broth dilution method; type: functional, organism-based
[11] = test system: Staphylococcus epidermidis; assay: Antibacterial activity against methicillin-sensitive Staphylococcus epidermidis 16-4 assessed as prevention of visible bacterial growth incubated for 18 hrs by broth dilution method; type: functional, organism-based
Klebsiella pneumoniae [12] = assay: Antibacterial activity against extended-spectrum beta-lactamase producing Klebsiella pneumoniae 700603 assessed as prevention of visible bacterial growth incubated for 18 hrs by broth dilution method; type: functional, organism-based
[13] = test system: Staphylococcus epidermidis; assay: Antibacterial activity against methicillin-resistant Staphylococcus epidermidis 16-5 assessed as prevention of visible bacterial growth incubated for 18 hrs by broth dilution method; type: functional, organism-based
Enterobacter cloacae = assay: Antibacterial activity against Enterobacter cloacae ATCC 43560 assessed as prevention of visible bacterial growth incubated for 18 hrs by broth dilution method; type: functional, organism-based
Klebsiella pneumoniae [14] = assay: Antibacterial activity against extended-spectrum beta-lactamase non-producing Klebsiella pneumoniae 16-2 assessed as prevention of visible bacterial growth incubated for 18 hrs by broth dilution method; type: functional, organism-based
Enterococcus faecium [15] = assay: Antibacterial activity against vancomycin-resistant Enterococcus faecium ATCC 700221 assessed as prevention of visible bacterial growth incubated for 18 hrs by broth dilution method; type: functional; conditions: ATCC 700221, 18 h
Enterococcus faecalis [16] = assay: Antibacterial activity against vancomycin-sensitive Enterococcus faecalis 16-6 assessed as prevention of visible bacterial growth incubated for 18 hrs by broth dilution method; type: functional, organism-based
Escherichia coli [17] = assay: Antibacterial activity against extended-spectrum beta-lactamase producing Escherichia coli ATCC 35218 assessed as prevention of visible bacterial growth incubated for 18 hrs by broth dilution method; type: functional, organism-based
Shigella flexneri = assay: Antibacterial activity against Shigella flexneri ATCC 12022 assessed as prevention of visible bacterial growth incubated for 18 hrs by broth dilution method; type: functional, organism-based
PC-3 = assay: Cytotoxicity against human PC3 cells incubated for 72 hrs by MTT assay; type: functional, cell-based; conditions: PC-3, 72 h
Staphylococcus aureus [18] = assay: Antibacterial activity against methicillin-sensitive Staphylococcus aureus 16-1 assessed as prevention of visible bacterial growth incubated for 18 hrs by broth dilution method; type: functional, organism-based
Escherichia coli [19] = assay: Antibacterial activity against extended-spectrum beta-lactamase non-producing Escherichia coli ATCC 25922 assessed as prevention of visible bacterial growth incubated for 18 hrs by broth dilution method; type: functional, organism-based
Staphylococcus aureus [20] = assay: Antibacterial activity against methicillin-sensitive Staphylococcus aureus ATCC 29213 assessed as prevention of visible bacterial growth incubated for 18 hrs by broth dilution method; type: functional, organism-based

COc1cc2oc3c(c(=O)c2cc1O)C(=O)C1=C(CCc2cc4c(c(O)c21)C(=O)N1CCO[C@]1(C)C4)C3=O
0.25 µg/mL: MIC (Enterococcus faecium [2]) | MIC (Staphylococcus aureus [3]) | MIC (Enterococcus faecalis [8])
34.3 nM: IC50 (PC-3)
inactive: Activity (Staphylococcus aureus [1]) | Activity (Pseudomonas aeruginosa) | Activity [4] | Activity (Enterococcus faecium [6]) | Activity [7] | Activity (Enterococcus faecalis [10]) | Activity [11] | Activity (Klebsiella pneumoniae [12]) | Activity [13] | Activity (Enterobacter cloacae) | Activity (Klebsiella pneumoniae [14]) | Activity (Enterococcus faecalis [16]) | Activity (Escherichia coli [17]) | Activity (Shigella flexneri) | Activity (Staphylococcus aureus [18]) | Activity (Escherichia coli [19]) | Activity (Staphylococcus aureus [20])
0.12 µg/mL: MIC (Staphylococcus aureus [9])
0.5 µg/mL: MIC (Enterococcus faecalis [5]) | MIC (Enterococcus faecium [15])
107 nM: IC50 (NCI-H1299)
20.9 nM: IC50 (SW1990)

COc1cc2oc3c(c(=O)c2cc1OC)C(=O)c1c(ccc2cc4c(c(O)c12)C(=O)N1CCO[C@]1(C)C4)C3=O
1 µg/mL: MIC (Enterococcus faecium [2]) | MIC (Enterococcus faecium [15])
0.5 µg/mL: MIC (Staphylococcus aureus [3]) | MIC (Staphylococcus aureus [9])
704 nM: IC50 (SW1990)
1310 nM: IC50 (PC-3)
252 nM: IC50 (NCI-H1299)
0.12 µg/mL: MIC (Enterococcus faecalis [5]) | MIC (Enterococcus faecalis [8])

COc1cc2oc3c(c(=O)c2cc1OC)C(=O)C1=C(CCc2cc4c(c(O)c21)C(=O)N1CCO[C@]1(C)C4)C3=O
3.5 nM: IC50 (PC-3)
2 nM: IC50 (NCI-H1299)
0.12 µg/mL: MIC (Enterococcus faecium [2]) | MIC (Enterococcus faecalis [5]) | MIC (Enterococcus faecalis [8]) | MIC (Staphylococcus aureus [9])
0.06 µg/mL: MIC (Staphylococcus aureus [3]) | MIC (Enterococcus faecium [15])
inactive: Activity (Staphylococcus aureus [1]) | Activity (Pseudomonas aeruginosa) | Activity [4] | Activity (Enterococcus faecium [6]) | Activity [7] | Activity (Enterococcus faecalis [10]) | Activity [11] | Activity (Klebsiella pneumoniae [12]) | Activity [13] | Activity (Enterobacter cloacae) | Activity (Klebsiella pneumoniae [14]) | Activity (Enterococcus faecalis [16]) | Activity (Escherichia coli [17]) | Activity (Shigella flexneri) | Activity (Staphylococcus aureus [18]) | Activity (Escherichia coli [19]) | Activity (Staphylococcus aureus [20])
5.4 nM: IC50 (SW1990)
